Data reported in patent US4757087A, “Carbacyclin derivatives” (Sankyo Company Limited, priority 1985, dated 1988).

How the values were obtained:
aspirin-induced ulcer = experiment: Effect on aspirin-induced ulcer (Brodie and Chase method); assay type: in vivo, rats of the Donryu strain (male); details: orally, rats, 15 min before 100 mg/kg aspirin, 4 h after aspirin
Method: According to a method reported by Brodie and Chase [Gastroenterology 53, 604 (1967)], the anti-ulcer effect was determined. Five male rats of the Donryu strain (body weight 170 to 200 g) were used for each of the control and test compound groups. After being fasted for 24 hours, the rats were orally given certain concentrations of the test compounds and 15 minutes later given orally 100 mg/kg of aspirin (Sanko Pharmaceutical Inc). Four hours after the aspirin administration, the stomach was extracted and expanded with 10 ml of 0.5% formalin. An ulcer index was calculated from the total area of ulceration for the rats of the treated and control groups. The inhibition rate was calculated by comparing the ulcer indices of both groups.

[1] = Acute toxicity testing, intravenous; assay type: in vivo; details: intravenously, 10 mg per kg of body weight, five rats
[2] = tested on: blood platelet aggregation; details: GB 2012265A, U.S. Pat. No. 4,238,414; cited from earlier work
[3] = GB 2012265A, U.S. Pat. No. 4,238,414; cited from earlier work

Row | Structure (SMILES) | Inhibition Rate (%) (aspirin-induced ulcer; 30 γ/kg (γ = 10^-6 g)) | Inhibition Rate (%) (aspirin-induced ulcer; 100 γ/kg (γ = 10^-6 g)) | other results
1 | C=CCCCC(C)[C@H](O)/C=C/[C@@H]1[C@H]2C/C(=C/CCCC(=O)O)C[C@H]2C[C@H]1O (stereo partly drawn) [Preparative Example 1, 16-Methyl-20-methylenecarbacyclin] | 95% | 98% | Inhibition Rate (%) (aspirin-induced ulcer; 10 γ/kg (γ = 10^-6 g)): 45%; deaths (acute toxicity) [1]: no deaths occurred
2 | CCC=CC[C@H](O)/C=C/[C@@H]1[C@H]2C/C(=C/CCCC(=O)O)C[C@H]2C[C@H]1O [Reference Compound B, 17,18-Didehydrocarbacyclin] | 15% | 47% | 
3 | CC(C)=CCCCC(C)[C@H](O)/C=C/[C@@H]1[C@H]2C/C(=C/CCCC(=O)O)C[C@H]2C[C@H]1O (stereo partly drawn) [Preparative Example 6, 16-Methyl-20-isopropylidenecarbacyclin] | 84% |  | 
4 | CC(C)=CCCC(C)C[C@H](O)/C=C/[C@@H]1[C@H]2C/C(=C/CCCC(=O)O)C[C@H]2C[C@H]1O (stereo partly drawn) [Reference Compound D, 17-Methyl-20-isopropylidenecarbacyclin] | 30% | 98% | 
5 | C=CCCCC(C)(C)[C@H](O)/C=C/[C@@H]1[C@H]2C/C(=C/CCCC(=O)O)C[C@H]2C[C@H]1O [Preparative Example 3, 16,16-Dimethyl-20-methylenecarbacyclin] | 92% |  | 
6 | CCCCC[C@H](O)/C=C/[C@@H]1[C@H]2C/C(=C/CCCC(=O)O)C[C@H]2C[C@H]1O [Reference Compound A, Carbacyclin] |  | 0% | Inhibition Rate (%) (aspirin-induced ulcer; 300 γ/kg (γ = 10^-6 g)): 0%; inhibition of blood platelet aggregation [2]: inhibition of blood platelet aggregation; chemical stability [3]: chemically stable
7 | CC(C)=CCCCC[C@H](O)/C=C/[C@@H]1[C@H]2C/C(=C/CCCC(=O)O)C[C@H]2C[C@H]1O [Reference Compound C, 20-Isopropylidenecarbacyclin] |  |  | Inhibition Rate (%) (aspirin-induced ulcer; 300 γ/kg (γ = 10^-6 g)): 4%
